Results from patent US6441167B1, “Cinoxacin lanthanide chelates and their use as biomolecular probes” (SmithKline Beecham plc, priority 1998, dated 2002).

Assays:
[1] = Time resolved fluorescence signal of streptavidin conjugate (Wallac Victor); type: physicochemical; settings: 50 nM in 100 uL; 400 us delay, 400 us read, cycle time 1000 us
Experimental: The reaction mixtures (549 ul) were then desalted into phosphate buffered saline containing 0.05% Tween 20 (PBS/Tween, Sigma) and 500 ul fractions were collected and assayed for protein content (Coomassie Blue Reagent, Biorad). The concentration of the pooled fractions (2 ml, 14 uM) was determined by Coomassie staining using streptavidin as a standard. […] 50 nM Cin-DTPA-SA gave 10,000 counts per second in 100 uL using these conditions. Improved labelling conditions yielding brighter conjugates, were obtained by freshly dissolving the Cin-DTPA-APA-chlorotriazine in 100% DMSO, increasing the pH of the reaction mixture to 9.0 in Bicarbonate buffer, and increasing the reaction time to approximately 16 hours at 4° C.

Cy5-labelled peptides = assay: Time resolved fluorescence resonance energy transfer from Cin-DTPA-SA to Cy5-labelled peptide; settings: 100 nM Cin-DTPA-SA; saturating concentrations of Cy5-peptide; λex=340 nm
Experimental: Cin-DTPA-SA (100 nM) in PBS/Tween was mixed with increasing concentrations (0.1-1000 nM) of N-Succ-(Cy5-NH-K)AERAQAGVVNASSRLAE(K-NH-Biotin)-CO2H (where underlined letters refer to single amino acid codes) prepared by reaction of the corresponding unlabelled peptide with the N-hydroxysuccinimide esters of biotin and Cy5 (Amersham). After 30 minutes incubation at room temperature, the fluorescence intensity of the sample (λex=340 nm, λem=615 nm or 664 nm) was determined using a time gate of 400 us, 400 us read time, 1000 us cycle time for europium (615 nm) fluorescence and a time gate of 70 us, 200 us read time, 1000 us cycle time for Cy5 (664 nm) fluorescence. The 615 nm fluorescence decreased in a peptide concentration dependent manner by 62-67% at saturating concentrations of Cy5-peptide whilst the 664 nm fluorescence increased in a saturable manner from 1000 counts/second to 8,000 counts/second at saturating concentration of peptide. […] In addition, titration of 10 nM Cin-DTPA-SA with biotinylated allophycocyanin (Bt-APC, 0.5-500 nM, Sigma) in PBS/Tween was associated with an increase in the fluorescence signal at 664 nm from 1000 counts/second to 3,500 counts/second at 500 nM Bt-APC, again indicating energy transfer from the chelate to the acceptor.
The Eu^3+ fluorescence decreases and the Cy5 fluorescence increases as the Cy5-labelled peptide is titrated in. […]

[2] = Excitation and emission spectra and time resolved fluorescence decays of Europium chelates; type: physicochemical
Experimental: Below are some typical excitation and emission spectra, alone with time resolved fluorescence decays for Europium chelates of this invention. All spectra and decay measurements were recorded on an Amino Bowman Spectrophotometer (model AB2), with a time resolution of 50 us.
The characteristic narrow emission bands of europium is observed at around 614 nm. The excitation spectrum for the 614 nm emission band peaks at 355 nm, and at least 50% of this intensity is achieved with excitation wavelengths up to 375 nm.
As with the vast majority of fluorescence compounds, the sensitiser group itself has a very short fluorescence lifetime. […] However, as is clearly shown by the decay traces the fluorescence of the Eu^3+ incorporated in the chelate (at 614 nm) has a characteristically long lifetime that enables a time-resolved discrimination between the Eu-containing chelate and other fluorescent compounds. The Eu fluorescence lifetime was fitted with a single exponential fit giving a lifetime of 633 us.

Which “time resolved fluorescence signal” value [1] does the source give for “Cin-DTPA-SA: streptavidin labelled with Cinoxacin-DTPA-APA-chlorotriazene (D5) and loaded with Eu^3+” here?
The value was 10,000 counts per second.

And the “decrease of 615 nm fluorescence” value (Cy5-labelled peptides)?
The value was 62-67%.

For Cinoxacin-DTPA-Cinoxacin, which “decay of the chromophore” value ([2]; at 430 nm, in the presence of Eu^3+) is on record?
Its value is “too fast for detection”.

Which “fluorescence lifetime of the chromophore” value ([2]; at 421 nm, time resolution 50 us) does the source give for CCn1nc(C(=O)NCCNC(=O)CN(CCN(CCN(CC(=O)O)CC(=O)O)CC(=O)O)CC(=O)O)c(=O)c2cc3c(cc21)OCO3 [Cinoxacin-DTPA] here?
The value was “too short to be reliably detected”.

And the Eu fluorescence lifetime ([2]; at 614 nm, single exponential fit)?
The Eu fluorescence lifetime was 633 us.

What about the “emission bands of europium” value ([2]; in the presence of Eu^3+) of the same compound?
The value was “around 614 nm”.

And the “excitation spectrum peak for the 614 nm emission band” value ([2]; in the presence of Eu^3+)?
Its value is 355 nm.

And the “excitation wavelengths at which at least 50% of peak intensity is achieved” value ([2]; in the presence of Eu^3+, 614 nm emission)?
Its value is “up to 375 nm”.
